ChEMBL document CHEMBL1201862, “PubChem BioAssay data set” (2004)
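Compound exposure: 48 hours, 5 concentrations, 96-well plates. At the GI50, growth is halved.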 Activity calls are given as the source filed them. Rule as the data show it: active = GI50 up to about 1.1 µM and inactive = higher.

Columns and labels:
Test in all cases: inhibition of tumour cell growth, NCI panel, 48 h
[1] = test system: HOP-18
[2] = test system: SNB-78
[3] = test system: DLD-1
[4] = test system: DMS-273
[5] = test system: DMS-114
[6] = test system: KM-20L2
[7] = test system: LXFL 529
[8] = test system: XF498
[9] = test system: RXF 631

Measured: GI50

Nc1ncnc2c1ncn2C1OC(CSC(F)(F)F)C(O)C1O (centres undefined)
inactive: [1] > 100 µM | [2] > 100 µM | [3] > 100 µM | [4] > 100 µM | [5] > 100 µM | [6] > 100 µM | [7] > 100 µM

Nc1nc2sc3ccccc3c(=O)n2n1
inactive: [1] > 100 µM | [2] > 100 µM | [8] > 100 µM | [3] > 100 µM | [4] > 100 µM | [5] > 100 µM | [6] > 100 µM | [7] > 100 µM

Cc1cc2c(C=O)n[nH]c2c(C#N)c1C
inactive: [2] 95.3 µM | [3] > 100 µM | [4] 43.1 µM | [5] 26.5 µM | [6] 65.9 µM | [7] 34.7 µM | [9] 58.5 µM

Clc1ccc(-c2c(C3=NCCN3)nnn2-c2ccc(Cl)cc2)cc1
inactive: [1] > 100 µM | [2] 18.8 µM | [8] 15 µM | [3] 27.9 µM | [4] 42.2 µM | [5] 16.4 µM | [6] 15.7 µM | [7] 29.4 µM

O=C(O)/C=C/c1ccc(O)c(O)c1 [CAFFEIC ACID]
inactive: [1] > 100 µM | [2] > 100 µM | [3] > 100 µM | [4] > 100 µM | [5] > 100 µM | [6] > 100 µM | [7] > 100 µM | [9] > 100 µM

Cc1c2nc3ccccc3sc-2cc(=O)c1C
inactive: [1] > 100 µM | [2] > 24.3 µM | [8] 28.4 µM | [3] 12.7 µM | [4] 50.6 µM | [5] 10.2 µM | [6] > 72.6 µM | [7] 41 µM

COc1ccc2cc3n(c2c1)CCc1cc(OC)c(OC)cc1-3
inactive: [1] > 100 µM | [2] > 100 µM | [8] > 100 µM | [3] > 100 µM | [4] > 100 µM | [5] > 100 µM | [6] > 100 µM | [7] > 100 µM | [9] > 100 µM

O=C1C(Nc2ccc(S(=O)(=O)Nc3cnc4ccccc4n3)cc2)=C/C(=N\c2ccc(S(=O)(=O)Nc3cnc4ccccc4n3)cc2)c2ccccc21
inactive: [1] 13.7 µM | [2] 22.5 µM | [8] 25.5 µM | [3] 17.9 µM | [4] 12 µM | [5] 21.2 µM | [6] 17.7 µM | [7] 15.2 µM

CC/C(=N/O)c1ccc2[nH]c3c(C)cc([N+](=O)[O-])c(C)c3c2c1
inactive: [1] > 100 µM | [2] > 100 µM | [8] 50.2 µM | [3] 16.2 µM | [4] 19.4 µM | [5] > 100 µM

N#CC(C(=N/O)/C(=N\O)C(C#N)c1ccccc1)c1ccccc1 (centres undefined)
inactive: [1] > 100 µM | [2] > 100 µM | [8] > 100 µM | [3] > 100 µM | [5] > 100 µM | [6] > 100 µM | [7] > 100 µM | [9] > 100 µM

O=C(CC(=O)c1cccc([N+](=O)[O-])c1)C(=O)Nc1ccccc1
inactive: [1] > 100 µM | [2] > 100 µM | [8] > 100 µM | [3] > 100 µM | [4] > 100 µM | [5] > 100 µM | [6] > 100 µM | [7] > 100 µM | [9] > 100 µM

O=C(NOC(=O)c1ccc([N+](=O)[O-])cc1)c1ccc(Cl)cc1
inactive: [1] 2.9 µM | [2] 16.6 µM | [8] 85.9 µM | [3] 38.7 µM | [5] 44.5 µM | [6] 97.1 µM | [7] 17.9 µM | [9] > 100 µM

CCN(CC)C(=O)c1cccc2c(OC)ccc(OC)c12
inactive: [1] > 100 µM | [3] > 100 µM | [4] > 100 µM | [5] > 100 µM | [6] > 100 µM | [7] > 100 µM

CCOC(=O)/C(=C/c1ccc(C(=O)OC)cc1)N(CC)CC
inactive: [2] 24.4 µM | [5] 32.3 µM | [6] 31.2 µM | [7] 50.6 µM
